Measured values from patent publication US20230381269A1, “METHODS OF TREATING EYE DISORDERS” (Apellis Pharmaceuticals, Inc., priority 2020, published 2023).

How the values were obtained:
patients with wet AMD = experiment: Phase 1b open label single ascending dose clinical trial, intravitreal injection; assay type: in vivo, human
Description: In some embodiments a dose for intravitreal injection of a compstatin analog (e.g., comprising two compstatin analog moieties and a PEG having a molecular weight of about 40 kD) is 5 mg-20 mg. In some embodiments the dose is 10 mg. In some embodiments the dose is 10 mg, 11 mg, 12 mg, 13 mg, 14 mg, 15 mg, 16 mg, 17 mg, 18 mg, 19 mg, or 20 mg. In certain particular embodiments the dose is 15 mg. In some embodiments, any of the afore-mentioned doses is administered by intravitreal injection in a volume of between 90 and 110 microliters, e.g., in a volume of 100 microliters. In some embodiments, any of the afore-mentioned doses is administered by intravitreal injection using a 27, 28, 29, or 30 gauge needle. […] In certain embodiments a combination of dose and needle gauge that allows administration by IVT injection in 10 seconds or less is selected. In certain embodiments a combination of dose and needle that allows administration of the dose by IVT injection in 5-6 seconds, or less, is used.
A Phase 1 open label, single ascending dose clinical trial of pegcetacoplan in patients with wet AMD and receiving anti-VEGF therapy (specifically, Lucentis®, Eylea® or Avastin®), was initiated to assess safety, tolerability and PK of pegcetacoplan. In this trial, patients receive a single dose of pegcetacoplan by intravitreal injection followed by 113 days of monitoring. […]

[1] = Pharmacokinetic profile of a single intravitreal dose in monkeys; assay type: in vivo; details: single intravitreal dose 10 mg/eye in both eyes
patients with GA [2] = experiment: Phase 2 randomized sham-controlled clinical trial in GA: change in GA lesion size; assay type: in vivo, human; details: 15 mg intravitreal monthly or every other month for 12 months vs sham
Description: A randomized, single-masked, sham-controlled clinical trial of pegcetacoplan in patients with GA was conducted. 246 patients aged ≥50 years were enrolled in the trial.
Patients were randomized in a 2:2:1:1 manner to receive 15 mg pegcetacoplan (APL-2) monthly, 15 mg pegcetacoplan every other month, sham injection monthly or sham injection every other month. Patients in the pegcetacoplan arms received a dose of 15 mg of pegcetacoplan, injected into the vitreous humor in a 0.1 cc volume, monthly or every other month for 12 months followed by six months of monitoring after the end of treatment. In the sham-injection cohorts, patients received a simulated injection. The safety, tolerability, PK, and evidence of activity of multiple intravitreal injections of pegcetacoplan in patients with GA in at least one eye were assessed. The primary efficacy endpoint was change in GA lesion size from baseline to month 12. […] The adverse event profile is depicted in FIG. 3. (See also Liao et al., Ophthalmology 127:186-195 (2020).)

[3] = Repeated intravitreal injection toxicology/toxicokinetics over nine months in cynomolgus monkeys; assay type: in vivo
Description: Preclinical studies in monkeys were performed to assess the safety and pharmacology of pegcetacoplan when injected intravitreally. Intravitreally administered pegcetacoplan in cynomolgus monkeys is distributed into the blood stream then further distributed and/or slowly eliminated from the body.

patients with GA [4] = experiment: Post hoc OCT analysis of Phase 2 trial: progression outside GA lesions (large drusen to iRORA/cRORA, iRORA to cRORA); assay type: in vivo, human; details: for reduction in the risk of progression to cRORA compared with sham: 12 months
Description: Post hoc analysis was also conducted to assess disease progression outside of GA lesions. Participants in the study (n=246) were categorized into PM (n=86), EOM (n=79), and sham (n=81) categories. Eyes with missed injections and those that developed exudative AMD (whereupon pegcetacoplan treatment was discontinued) were excluded. […] Masked readers evaluated OCT scans outside a 500-micron perimeter from the GA border adhering to classification described in Sadda et al., Ophthalmology 125:537-548 (2018)). […] SD-OCT images obtained at baseline, Month 6, and Month 12 (using the Zeiss Cirrus or 156 Heidelberg Spectralis) using 7-line raster scans (30×5, 240 μm spacing, 7 sections, ART set to 25, 1536 A-scans) and volume scans (20×20; 49 sections, 120 μm spacing, ART set to 16, 512 A-scans) were graded following the CAM criteria independently by two masked readers at the Doheny Image Reading and Research Lab (DIRRL). A senior reader (and member of the CAM group) reviewed all questionable cases flagged by the readers and also adjudicated any discrepancies between graders in order to yield a single consensus result for each case.
Main outcome measures included assessments at baseline, Month 6 and Month 12 of: a) progression from large drusen (≥40 microns height) to incomplete/complete RPE and outer retina atrophy (iRORA and/or cRORA) and b) progression from iRORA to cRORA. Specifically, the endpoints for each treatment group were: proportion of study eyes with at least one iRORA at baseline that progressed to cRORA at 6 and 12 months, and proportion of individual baseline iRORA lesions that progressed to cRORA at 6 and 12 months.
Baseline characteristics were summarized using descriptive statistics. Continuous variables, such as GA lesion size, were summarized using the number of observations, mean, standard deviation, median, minimum, and maximum. Categorical variables, such as the presence of iRORA lesion(s) at baseline, were summarized using counts and percentages. The progression of iRORA to cRORA was summarized at Months 6 and 12 at both the study eye and lesion level. For the study-eye-level summaries, the subset of eyes with at least one iRORA lesion at baseline was included. If at least one iRORA lesion was present at baseline progressed to cRORA during follow-up, the eye was counted as having progressed. The proportion of study eyes with progression was compared between each pegcetacoplan group and the sham control group using a Pearson chi-square test. P values <0.05 were considered statistically significant. Risk ratios and their corresponding 95% confidence intervals were calculated as the proportion that progressed from iRORA to cRORA in the pegcetacoplan group divided by the proportion in the sham group. For the lesion-level summaries of progression, each iRORA lesion present at baseline was assessed separately for progression to a cRORA lesion; the proportion of lesions that progressed was compared between each pegcetacoplan group and the sham control group using descriptive statistics (counts and percentages).

Question: For “Poly(oxy-1,2-ethanediyl), α-hydro-ω-hydroxy-, 15,15′-diester with N-acetyl-L-isoleucyl-L-cysteinyl-L-valyl-1-methyl-L-tryptophyl-L-glutaminyl-L-α-aspartyl-L-tryptophylglycyl-L-alanyl-L-histidyl-L-arginyl-L-cysteinyl-L-threonyl-2-[2-(2-aminoethoxy)ethoxy]acetyl-N^6-carboxy-L-lysinamide cyclic (2->12)-(disulfide) [pegcetacoplan]”, which serious adverse events (patients with wet AMD; initial nine patients, single intravitreal dose 5, 10 or 20 mg) is on record?
Answer: no serious adverse events were reported

Question: What about the tolerability (patients with wet AMD; single intravitreal dose 5 mg, 10 mg, 20 mg in 100 microliters) of the same substance?
Answer: well tolerated

Question: What about the vitreal half-life [1] of the same substance?
Answer: approximately 3.2 days

Question: And the “apparent half-life of serum concentrations” value ([1]; serum)?
Answer: 10.4 days

Question: And the “post-dose day until which serum concentrations increased” value ([1]; serum)?
Answer: 7 days

Question: And the “rate of GA lesion growth (change in GA lesion size from baseline to month 12)” value (patients with GA [2])?
Answer: reduced rate of lesion growth

Question: What about the “intraocular or serum accumulation over multiple injections” value ([3]; doses up to 24.8 mg/eye in 5% dextrose, 50 or 100 μL/eye) of the same substance?
Answer: little intraocular or serum accumulation

Question: What about the “full toxicological review (ophthalmological assessment, SD-OCT, electroretinography, tonometry, histopathology)” value ([3]; repeated intravitreal injections over nine months, doses up to 24.8 mg/eye) of the same substance?
Answer: no evidence of pegcetacoplan-mediated changes

Question: What about the “reduction in the risk of progression to cRORA compared with sham” value (shortened to “reduction in the risk of progression”) (patients with GA [4]; every other month, lesion level) of the same substance?
Answer: 40%

Question: And the “reduction in the risk of progression” value (patients with GA [4]; every other month, study-eye level)?
Answer: 30%

Question: What about the “reduction in the risk of progression” value (patients with GA [4]; monthly, lesion level) of the same substance?
Answer: 41%

Question: What about the “reduction in the risk of progression” value (patients with GA [4]; monthly, study-eye level) of the same substance?
Answer: 39%

Question: What about the “Relative risk of progression from iRORA to cRORA vs sham (95% CI)” value (“Relative risk of progression … (95% CI)” for short) (patients with GA [4]; Month 6, PEOM, lesion level data) of the same substance?
Answer: 0.51 (0.30-0.87)

Question: What about the “Relative risk of progression … (95% CI)” value (patients with GA [4]; Month 6, PEOM, study-eye level) of the same substance?
Answer: 0.76 (0.45-1.29)

Question: What about the “Relative risk of progression … (95% CI)” value (patients with GA [4]; Month 6, PM, lesion level data) of the same substance?
Answer: 0.53 (0.24-1.14)

Question: What about the “Relative risk of progression … (95% CI)” value (patients with GA [4]; Month 6, PM, study-eye level) of the same substance?
Answer: 0.52 (0.23-1.18)

Question: And the “progression from large drusen to iRORA/cRORA” value (patients with GA [4]; Month 12, 15 mg monthly (PM))?
Answer: 22.6%

Question: And the “Relative risk of progression … (95% CI)” value (patients with GA [4]; Month 12, PEOM, lesion level data)?
Answer: 0.60 (0.43-0.82)

Question: And the “Relative risk of progression … (95% CI)” value (patients with GA [4]; Month 12, PEOM, study-eye level)?
Answer: 0.70 (0.50-0.98)

Question: And the “Relative risk of progression … (95% CI)” value (patients with GA [4]; Month 12, PM, lesion level data)?
Answer: 0.59 (0.36-0.97)

Question: And the “Relative risk of progression … (95% CI)” value (patients with GA [4]; Month 12, PM, study-eye level)?
Answer: 0.61 (0.37-1.00)

Question: What about the “progression events from large drusen to iRORA/cRORA vs sham (in words)” value (patients with GA [4]; Month 12, monthly) of the same substance?
Answer: relatively fewer progression events

Question: And the “rate of progression from nascent GA to GA compared to sham controls (in words)” value (patients with GA [4]; intravitreal injections monthly or every other month)?
Answer: lower rate of progression from nascent GA to GA

Question: What about the “rate of progression of iRORA lesions to cRORA” value (patients with GA [4]; month 6, every other month (PEOM), lesion level) of the same substance?
Answer: 20.0%

Question: And the “progression from iRORA to cRORA, proportion of study eyes” value (“progression from iRORA … of study eyes” for short) (patients with GA [4]; month 6, every other month (PEOM), study-eye level)?
Answer: 40.6%

Question: And the “rate of progression of iRORA lesions to cRORA” value (patients with GA [4]; month 6, monthly (PM), lesion level)?
Answer: 20.7%

Question: And the “progression from iRORA … of study eyes” value (patients with GA [4]; month 6, monthly (PM), study-eye level)?
Answer: 27.8%

Question: And the “rate of progression of iRORA lesions to cRORA” value (patients with GA [4]; month 12, every other month (EOM), lesion level)?
Answer: 38.4%

Question: And the “progression from iRORA … of study eyes” value (patients with GA [4]; month 12, every other month (PEOM), study-eye level)?
Answer: 57.6%

Question: And the “rate of progression of iRORA lesions to cRORA” value (patients with GA [4]; month 12, monthly (PM), lesion level)?
Answer: 37.9%

Question: And the “progression from iRORA … of study eyes” value (patients with GA [4]; month 12, monthly (PM), study-eye level)?
Answer: 50.0%

Question: And the “rate of progression from iRORA to cRORA compared to sham group (in words)” value (patients with GA [4]; monthly or every other month)?
Answer: lower rate of progression from iRORA to cRORA
